# Results reported in patent US8901276B2, “Peptide reagents and methods for detection of colon dysplasia” (The Regents of the University of Michigan, priority 2010, dated 2014).
# Where no end group is shown, it is not given here.
# How the values were obtained:
# [1] = system: excised polyps; test: Ex vivo peptide binding to excised polyps; set-up: species or system CPC;Apc mice; settings: 100 μM, 5 min
# Procedure: Polyps from CPC;Apc mice (n=3 mice, 5 polyp pairs) were excised and washed 3× in PBS. The polyps were incubated in 100 μM peptide solution for 5 minutes and subsequently washed 3× with 1×PBS. Polyps were grossly imaged using the small animal endoscope to view binding to the polyp as a whole. Pairs of polyps (one candidate, one control) were imaged at a time to allow for the calculation of a candidate peptide to Control peptide 1 binding ratio for each pair analyzed. An average binding ratio was calculated ± one standard deviation. A similar procedure to determine mean grey scale values for image analysis was followed for the ex vivo polyps as described above for the in vivo polyps.
# [2] = system: adenomatous polyps; test: Confocal microscopy of polyp biopsy after in vivo peptide administration; set-up: species or system CPC;Apc mice; settings: biopsy after in vivo FITC-peptide administration
# Procedure: Preferential binding of Peptide compared to the Control peptide 1 on the adenomatous polyps was confirmed with confocal microscopy. A polyp biopsy was taken after 5′-FITC-labeled peptide administration in vivo, incubated in 1 μg/mL Hoechst dye for 5 minutes to stain living nuclei, rinsed 3× with 1×PBS and imaged on a Leica Confocal Microscope (Leica Microsystems, Bannockburn, Ill.).
sequence,measurement,setting,value
"QPIHPNNM (also: FITC or Cy5.5 label) [Peptide 1, tested FITC- or Cy5.5-labeled]",increase in binding compared to Control peptide 1,[1],~2 fold
same,"binding to adenomas, confocal images of biopsied polyps",[2],bound more to adenomas than the Control peptide 1
